Assay results from the supplement of paper PMC10307832.

Tests used:
Assay in all cases: relative viability (nuclei count vs DMSO), 5 days (fraction); higher = more cells survive
UMC-11 = test system: UMC-11
How it was run: (§1)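 Cells from lung cancer lines were seeded into 1536-well plates and, one day later, dosed by pin tool. Treatments were either a single drug or a fixed dose of an anchor drug with five library-drug doses (not always all listed) in √10 steps. After 5 days, nuclei were stained in a one-step fixation (final 0.05% Triton X-100, 1% formaldehyde, 1 ug/ml Hoechst) and counted on 4× images, and relative viability is the treated-to-vehicle nuclei ratio, as the median of duplicate plates.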

NCI-H1734 = test system: NCI-H1734
How it was run: as §1

SK-LU-1 = test system: SK-LU-1
How it was run: as §1

COR-L23 = test system: COR-L23
How it was run: as §1

LXF-289 = test system: LXF-289
How it was run: as §1

NCI-H2085 = test system: NCI-H2085
How it was run: as §1

RERF-LC-KJ = test system: RERF-LC-KJ
How it was run: as §1

NCI-H1437 = test system: NCI-H1437
How it was run: as §1

NCI-H1651 = test system: NCI-H1651
How it was run: as §1

NCI-H3122 = test system: NCI-H3122
How it was run: as §1

NCI-H23 = test system: NCI-H23
How it was run: as §1

NCI-H647 = test system: NCI-H647
How it was run: as §1

A-427 = test system: A-427
How it was run: as §1

NCI-H358 = test system: NCI-H358
How it was run: as §1

EKVX = test system: EKVX
How it was run: as §1

SW 900 = test system: SW 900
How it was run: as §1

NCI-H2347 = test system: NCI-H2347
How it was run: as §1

NCI-H322M = test system: NCI-H322M
How it was run: as §1

NCI-H460 = test system: NCI-H460
How it was run: as §1

NCI-H2087 = test system: NCI-H2087
How it was run: as §1

LK-2 = test system: LK-2
How it was run: as §1

NCI-H2405 = test system: NCI-H2405
How it was run: as §1

H3255 = test system: H3255
How it was run: as §1

PC-14 = test system: PC-14
How it was run: as §1

NCI-H1993 = test system: NCI-H1993
How it was run: as §1

`Nc1cccc2c1CN(C1CCC(=O)NC1=O)C2=O` (centres undefined) [Lenalidomide] + N=C(N)NC(=N)NCCc1ccccc1 [Phenformin] (partner 250 µM) gave a relative viability (UMC-11; first compound 0.253 µM) of 0.317, a relative viability (UMC-11; first compound 0.8 µM) of 0.328 and a relative viability (UMC-11; first compound 2.53 µM) of 0.389. For the same molecule, the relative viability (UMC-11; first compound 8 µM) was 0.339, the relative viability (NCI-H1734; first compound 0.253 µM) was 0.39 and the relative viability (NCI-H1734; first compound 0.8 µM) was 0.413. It also gave a relative viability (NCI-H1734; first compound 2.53 µM) of 0.425, a relative viability (NCI-H1734; first compound 8 µM) of 0.34 and a relative viability (SK-LU-1; first compound 0.253 µM) of 0.539. It also gave a relative viability (SK-LU-1; first compound 0.8 µM) of 0.595, a relative viability (SK-LU-1; first compound 2.53 µM) of 0.693 and a relative viability (SK-LU-1; first compound 8 µM) of 0.472. For the same molecule, the relative viability (COR-L23; first compound 0.253 µM) was 0.412, the relative viability (COR-L23; first compound 0.8 µM) was 0.412 and the relative viability (COR-L23; first compound 2.53 µM) was 0.508. The relative viability (COR-L23; first compound 8 µM) was 0.45, the relative viability (LXF-289; first compound 0.253 µM) was 0.536 and the relative viability (LXF-289; first compound 0.8 µM) was 0.547. The relative viability (LXF-289; first compound 2.53 µM) was 0.565, the relative viability (LXF-289; first compound 8 µM) was 0.58 and the relative viability (NCI-H2085; first compound 0.253 µM) was 0.604. It also gave a relative viability (NCI-H2085; first compound 0.8 µM) of 0.653, a relative viability (NCI-H2085; first compound 2.53 µM) of 0.827 and a relative viability (NCI-H2085; first compound 8 µM) of 0.562. The relative viability (RERF-LC-KJ; first compound 0.253 µM) was 0.403, the relative viability (RERF-LC-KJ; first compound 0.8 µM) was 0.463 and the relative viability (RERF-LC-KJ; first compound 2.53 µM) was 0.431. The relative viability (RERF-LC-KJ; first compound 8 µM) was 0.441, the relative viability (NCI-H1437; first compound 0.253 µM) was 0.276 and the relative viability (NCI-H1437; first compound 0.8 µM) was 0.248. The relative viability (NCI-H1437; first compound 2.53 µM) was 0.839, the relative viability (NCI-H1437; first compound 8 µM) was 0.363 and the relative viability (NCI-H1651; first compound 0.253 µM) was 0.301. For the same molecule, the relative viability (NCI-H1651; first compound 0.8 µM) was 0.351, the relative viability (NCI-H1651; first compound 2.53 µM) was 0.493 and the relative viability (NCI-H1651; first compound 8 µM) was 0.337. The relative viability (NCI-H3122; first compound 0.253 µM) was 0.379, the relative viability (NCI-H3122; first compound 0.8 µM) was 0.387 and the relative viability (NCI-H3122; first compound 2.53 µM) was 0.395. It also gave a relative viability (NCI-H3122; first compound 8 µM) of 0.457, a relative viability (NCI-H23; first compound 0.253 µM) of 0.733 and a relative viability (NCI-H23; first compound 0.8 µM) of 0.695. For the same molecule, the relative viability (NCI-H23; first compound 2.53 µM) was 0.889, the relative viability (NCI-H23; first compound 8 µM) was 0.729 and the relative viability (NCI-H647; first compound 0.253 µM) was 0.438. For the same molecule, the relative viability (NCI-H647; first compound 0.8 µM) was 0.487, the relative viability (NCI-H647; first compound 2.53 µM) was 0.703 and the relative viability (NCI-H647; first compound 8 µM) was 0.581. The relative viability (A-427; first compound 0.253 µM) was 0.317, the relative viability (A-427; first compound 0.8 µM) was 0.324 and the relative viability (A-427; first compound 2.53 µM) was 0.421. For the same molecule, the relative viability (A-427; first compound 8 µM) was 0.311, the relative viability (NCI-H358; first compound 0.253 µM) was 0.338 and the relative viability (NCI-H358; first compound 0.8 µM) was 0.371. The relative viability (NCI-H358; first compound 2.53 µM) was 0.405, the relative viability (NCI-H358; first compound 8 µM) was 0.359 and the relative viability (EKVX; first compound 0.253 µM) was 0.23. For the same molecule, the relative viability (EKVX; first compound 0.8 µM) was 0.211, the relative viability (EKVX; first compound 2.53 µM) was 0.241 and the relative viability (EKVX; first compound 8 µM) was 0.196. It also gave a relative viability (SW 900; first compound 0.253 µM) of 0.583, a relative viability (SW 900; first compound 2.53 µM) of 0.747 and a relative viability (SW 900; first compound 8 µM) of 0.688. The relative viability (NCI-H2347; first compound 0.253 µM) was 0.409, the relative viability (NCI-H2347; first compound 0.8 µM) was 0.488 and the relative viability (NCI-H2347; first compound 2.53 µM) was 0.497. The relative viability (NCI-H2347; first compound 8 µM) was 0.206, the relative viability (NCI-H322M; first compound 0.253 µM) was 0.801 and the relative viability (NCI-H322M; first compound 0.8 µM) was 0.894. For the same molecule, the relative viability (NCI-H322M; first compound 2.53 µM) was 0.863, the relative viability (NCI-H322M; first compound 8 µM) was 0.846 and the relative viability (NCI-H460; first compound 0.253 µM) was 0.462. For the same molecule, the relative viability (NCI-H460; first compound 0.8 µM) was 0.522, the relative viability (NCI-H460; first compound 2.53 µM) was 0.671 and the relative viability (NCI-H460; first compound 8 µM) was 0.563. It also gave a relative viability (NCI-H2087; first compound 0.253 µM) of 0.416, a relative viability (NCI-H2087; first compound 0.8 µM) of 0.372 and a relative viability (NCI-H2087; first compound 2.53 µM) of 0.505. The relative viability (NCI-H2087; first compound 8 µM) was 0.477, the relative viability (LK-2; first compound 0.253 µM) was 0.575 and the relative viability (LK-2; first compound 0.8 µM) was 0.262. For the same molecule, the relative viability (LK-2; first compound 2.53 µM) was 0.656, the relative viability (LK-2; first compound 8 µM) was 0.229 and the relative viability (NCI-H2405; first compound 0.253 µM) was 0.382. For the same molecule, the relative viability (NCI-H2405; first compound 0.8 µM) was 0.416, the relative viability (NCI-H2405; first compound 2.53 µM) was 0.416 and the relative viability (NCI-H2405; first compound 8 µM) was 0.351. The relative viability (H3255; first compound 0.253 µM) was 0.331, the relative viability (H3255; first compound 0.8 µM) was 0.38 and the relative viability (H3255; first compound 2.53 µM) was 0.329. It also gave a relative viability (H3255; first compound 8 µM) of 0.386, a relative viability (PC-14; first compound 0.253 µM) of 0.637 and a relative viability (PC-14; first compound 0.8 µM) of 0.454. For the same molecule, the relative viability (PC-14; first compound 2.53 µM) was 0.606, the relative viability (PC-14; first compound 8 µM) was 0.548 and the relative viability (NCI-H1993; first compound 0.253 µM) was 0.429. For the same molecule, the relative viability (NCI-H1993; first compound 0.8 µM) was 0.553, the relative viability (NCI-H1993; first compound 2.53 µM) was 0.551 and the relative viability (NCI-H1993; first compound 8 µM) was 0.516.
